Test results taken from US20240335442A1 (Eurofarma Laboratórios S.A., priority 2021, published 2024).

What was measured:
[1] = target: human sodium channel Nav 1.8 (Homo sapiens (Human), UniProt Q9Y5Y9); assay: Automated whole-cell voltage-clamp (ScreenPatch 384P), Nav 1.8 sodium current, Protocol 2; type: cell-based; settings: read-out: Nav1.8 IC50
How it was run: (§1)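 CHO cells stably expressing human Nav1.7 or Nav1.8, automated whole-cell clamp, room temperature, ≥5 min exposure at eight concentrations. Protocol 1: hold −90 mV, 0.1 Hz, test pulse 0 mV (Nav1.7) or 10 mV (Nav1.8). Protocol 2: hold −100 mV with 8 s −40 mV inactivating step, 0.05 Hz. IC50 from Hill fit of TP1A peak-current block, normalized to vehicle and positive control.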

[2] = target: human sodium channel Nav 1.7 (Homo sapiens (Human), UniProt Q15858); assay: Automated whole-cell voltage-clamp (ScreenPatch 384P), Nav 1.7 sodium current, Protocol 2; type: cell-based; settings: read-out: Nav1.7 IC50
Sequence of human sodium channel Nav 1.7 (Q15858 whole entry): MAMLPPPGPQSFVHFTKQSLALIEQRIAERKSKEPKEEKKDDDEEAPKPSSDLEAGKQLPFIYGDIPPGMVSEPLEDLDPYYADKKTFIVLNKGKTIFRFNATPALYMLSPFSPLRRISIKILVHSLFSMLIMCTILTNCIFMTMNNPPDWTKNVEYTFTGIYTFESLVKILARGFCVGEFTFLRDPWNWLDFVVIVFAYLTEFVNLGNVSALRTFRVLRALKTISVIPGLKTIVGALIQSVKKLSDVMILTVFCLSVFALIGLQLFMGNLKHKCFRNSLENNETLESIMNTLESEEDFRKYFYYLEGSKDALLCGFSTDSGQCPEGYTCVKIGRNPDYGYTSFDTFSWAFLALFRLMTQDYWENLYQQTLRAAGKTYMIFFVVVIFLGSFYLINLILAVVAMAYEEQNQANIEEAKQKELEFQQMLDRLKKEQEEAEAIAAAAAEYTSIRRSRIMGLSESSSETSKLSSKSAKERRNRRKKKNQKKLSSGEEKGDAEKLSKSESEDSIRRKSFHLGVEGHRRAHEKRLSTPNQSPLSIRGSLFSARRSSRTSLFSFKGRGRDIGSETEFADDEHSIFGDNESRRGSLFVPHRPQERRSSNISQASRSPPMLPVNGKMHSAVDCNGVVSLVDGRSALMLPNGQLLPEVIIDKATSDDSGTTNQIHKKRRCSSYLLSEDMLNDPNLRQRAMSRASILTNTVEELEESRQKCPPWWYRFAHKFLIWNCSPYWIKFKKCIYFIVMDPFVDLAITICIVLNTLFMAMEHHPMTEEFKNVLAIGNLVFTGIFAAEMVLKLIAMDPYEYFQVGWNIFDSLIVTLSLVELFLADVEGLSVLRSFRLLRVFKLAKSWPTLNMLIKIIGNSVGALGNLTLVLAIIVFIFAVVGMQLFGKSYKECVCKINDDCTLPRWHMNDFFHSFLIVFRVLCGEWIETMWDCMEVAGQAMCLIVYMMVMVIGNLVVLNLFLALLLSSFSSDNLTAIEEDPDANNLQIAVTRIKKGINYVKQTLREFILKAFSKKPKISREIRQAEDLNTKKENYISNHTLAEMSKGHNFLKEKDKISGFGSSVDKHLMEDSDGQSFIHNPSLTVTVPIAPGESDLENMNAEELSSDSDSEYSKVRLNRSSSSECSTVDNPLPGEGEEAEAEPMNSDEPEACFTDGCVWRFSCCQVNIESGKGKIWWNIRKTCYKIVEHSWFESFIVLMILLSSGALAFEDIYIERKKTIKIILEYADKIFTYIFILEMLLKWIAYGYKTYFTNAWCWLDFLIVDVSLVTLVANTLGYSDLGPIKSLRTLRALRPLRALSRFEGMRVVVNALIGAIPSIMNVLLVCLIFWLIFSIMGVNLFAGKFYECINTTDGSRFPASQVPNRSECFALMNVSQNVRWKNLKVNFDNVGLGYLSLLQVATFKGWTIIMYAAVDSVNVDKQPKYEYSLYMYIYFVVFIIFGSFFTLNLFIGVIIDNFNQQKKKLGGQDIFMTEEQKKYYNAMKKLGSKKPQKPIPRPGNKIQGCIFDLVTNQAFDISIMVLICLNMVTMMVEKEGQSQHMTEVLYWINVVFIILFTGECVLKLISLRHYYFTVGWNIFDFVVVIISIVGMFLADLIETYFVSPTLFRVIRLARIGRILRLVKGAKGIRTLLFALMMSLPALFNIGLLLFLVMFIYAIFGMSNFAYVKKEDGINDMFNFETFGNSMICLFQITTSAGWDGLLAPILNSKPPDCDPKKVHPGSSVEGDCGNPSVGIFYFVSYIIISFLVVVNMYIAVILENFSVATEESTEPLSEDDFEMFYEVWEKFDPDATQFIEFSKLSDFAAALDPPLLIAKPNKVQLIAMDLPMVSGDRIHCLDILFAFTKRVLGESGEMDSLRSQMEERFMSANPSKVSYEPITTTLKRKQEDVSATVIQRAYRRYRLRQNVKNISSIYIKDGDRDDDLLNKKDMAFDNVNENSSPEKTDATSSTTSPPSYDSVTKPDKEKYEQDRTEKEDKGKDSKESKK
How it was run: as §1

Sequence of human sodium channel Nav 1.8 (Q9Y5Y9 whole entry): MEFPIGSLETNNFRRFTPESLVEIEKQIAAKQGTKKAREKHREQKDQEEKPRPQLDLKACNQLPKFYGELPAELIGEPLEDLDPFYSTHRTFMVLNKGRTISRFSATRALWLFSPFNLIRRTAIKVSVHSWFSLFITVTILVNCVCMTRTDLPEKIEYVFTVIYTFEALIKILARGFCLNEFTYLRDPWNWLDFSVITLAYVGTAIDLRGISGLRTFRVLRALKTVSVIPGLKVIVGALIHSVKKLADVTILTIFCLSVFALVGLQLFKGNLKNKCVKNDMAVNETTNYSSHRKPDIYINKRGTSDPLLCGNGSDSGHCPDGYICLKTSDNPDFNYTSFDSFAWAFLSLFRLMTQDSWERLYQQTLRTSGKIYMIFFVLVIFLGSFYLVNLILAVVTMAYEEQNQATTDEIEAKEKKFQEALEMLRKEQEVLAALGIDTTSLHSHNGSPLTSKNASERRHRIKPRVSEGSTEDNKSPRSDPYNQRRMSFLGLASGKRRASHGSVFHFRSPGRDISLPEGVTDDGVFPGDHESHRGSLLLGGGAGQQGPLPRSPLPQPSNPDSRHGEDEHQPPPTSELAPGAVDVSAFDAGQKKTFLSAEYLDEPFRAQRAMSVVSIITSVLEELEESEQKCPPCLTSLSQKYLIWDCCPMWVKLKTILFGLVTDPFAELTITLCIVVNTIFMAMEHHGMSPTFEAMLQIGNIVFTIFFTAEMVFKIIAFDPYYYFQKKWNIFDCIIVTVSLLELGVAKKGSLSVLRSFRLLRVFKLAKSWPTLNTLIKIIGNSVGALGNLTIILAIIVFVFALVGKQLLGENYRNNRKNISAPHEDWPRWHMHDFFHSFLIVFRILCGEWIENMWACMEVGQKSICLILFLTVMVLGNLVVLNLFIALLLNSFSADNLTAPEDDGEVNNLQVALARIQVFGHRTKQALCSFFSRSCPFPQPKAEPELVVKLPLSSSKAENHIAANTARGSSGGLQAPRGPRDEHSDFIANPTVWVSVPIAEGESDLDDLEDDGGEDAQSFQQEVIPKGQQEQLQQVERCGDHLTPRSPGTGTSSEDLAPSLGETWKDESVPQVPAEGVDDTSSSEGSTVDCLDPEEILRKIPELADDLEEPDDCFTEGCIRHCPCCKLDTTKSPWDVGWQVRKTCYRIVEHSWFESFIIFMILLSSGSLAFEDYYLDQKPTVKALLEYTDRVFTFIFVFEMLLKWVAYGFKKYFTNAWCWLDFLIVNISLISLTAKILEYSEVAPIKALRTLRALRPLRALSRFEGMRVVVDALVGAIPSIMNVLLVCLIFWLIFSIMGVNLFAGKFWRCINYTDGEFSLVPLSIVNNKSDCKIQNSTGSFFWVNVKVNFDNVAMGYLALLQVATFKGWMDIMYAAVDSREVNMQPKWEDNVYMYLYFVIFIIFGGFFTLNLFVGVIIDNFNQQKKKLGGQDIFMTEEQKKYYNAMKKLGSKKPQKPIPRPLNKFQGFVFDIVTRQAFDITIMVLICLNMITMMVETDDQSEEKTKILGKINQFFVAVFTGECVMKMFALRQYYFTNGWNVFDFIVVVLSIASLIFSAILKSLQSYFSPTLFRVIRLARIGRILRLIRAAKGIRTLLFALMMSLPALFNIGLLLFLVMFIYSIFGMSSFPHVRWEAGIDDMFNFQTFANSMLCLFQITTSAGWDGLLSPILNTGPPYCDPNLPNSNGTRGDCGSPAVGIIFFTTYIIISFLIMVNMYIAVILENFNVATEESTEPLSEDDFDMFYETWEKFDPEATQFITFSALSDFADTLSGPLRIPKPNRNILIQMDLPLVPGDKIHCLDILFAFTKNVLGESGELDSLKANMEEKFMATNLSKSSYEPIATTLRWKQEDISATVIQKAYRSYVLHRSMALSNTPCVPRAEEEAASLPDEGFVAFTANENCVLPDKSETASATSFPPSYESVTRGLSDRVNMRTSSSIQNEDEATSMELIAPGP

Structure (SMILES) | IC50 [1] [nM] | IC50 [2] [nM]
COc1cc(/C=N/NC(=O)c2cncc(N3CCOCC3)n2)cc(OC)c1 [Compound 126, (E)-N′-(3,5-dimethoxybenzylidene)-6-morpholinopyrazine-2-carbohydrazide] | > 1000 | > 10000
CCCN1CCN(c2cncc(C(=O)N/N=C/c3cc(OC)cc(OC)c3)n2)CC1 [Compound 128, (E)-N′-(3,5-dimethoxybenzylidene)-6-(4-propylpiperazin-1-yl)pyrazine-2-carbohydrazide] | > 1000 | > 10000
CCc1nccnc1C(=O)N/N=C/c1cc(OC)cc(OC)c1 [Compound 132, (E)-N′-(3,5-dimethoxybenzylidene)-3-ethylpyrazine-2-carbohydrazide] | > 1000 | > 10000
CCc1cncc(C(=O)N/N=C/c2cc(OC)cc(OC)c2)n1 [Compound 133, (E)-N′-(3,5-dimethoxybenzylidene)-6-ethylpyrazine-2-carbohydrazide] | 913 | > 10000
COc1cc(/C=N/NC(=O)c2cncc(C(C)C)n2)cc(OC)c1 [Compound 134, (E)-N′-(3,5-dimethoxybenzylidene)-6-isopropylpyrazine-2-carbohydrazide] | > 1000 | > 10000
COc1cc(/C=N/NC(=O)c2nccnc2C(C)C)cc(OC)c1 [Compound 135, (E)-N′-(3,5-dimethoxybenzylidene)-3-isopropylpyrazine-2-carbohydrazide] | > 1000 | > 10000
COc1cc(/C=N/NC(=O)c2cnc(C(C)C)cn2)cc(OC)c1 [Compound 136, (E)-N′-(3,5-dimethoxybenzylidene)-5-isopropylpyrazine-2-carbohydrazide] | > 1000 | > 10000
COc1cc(/C=N/NC(=O)c2cnc(C)cn2)cc(OC)c1 [Compound 138, (E)-N′-(3,5-dimethoxybenzylidene)-5-methylpyrazine-2-carbohydrazide] | > 1000 | > 10000
COc1cc(/C=N/NC(=O)c2nccnc2C)cc(OC)c1 [Compound 139, (E)-N′-(3,5-dimethoxybenzylidene)-3-methylpyrazine-2-carbohydrazide] | > 1000 | > 10000
COc1cc(/C=N/NC(=O)c2cncc(OC)n2)cc(OC)c1 [Compound 140, (E)-N′-(3,5-dimethoxybenzylidene)-6-methoxypyrazine-2-carbohydrazide] | > 1000 | > 10000
COc1cc(/C=N/NC(=O)c2nccnc2OC)cc(OC)c1 [Compound 141, (E)-N′-(3,5-dimethoxybenzylidene)-3-methoxypyrazine-2-carbohydrazide] | > 1000 | > 10000
COc1cc(/C=N/NC(=O)c2cnc(OC)cn2)cc(OC)c1 [Compound 142, (E)-N′-(3,5-dimethoxybenzylidene)-5-methoxypyrazine-2-carbohydrazide] | > 1000 | > 10000
CCOc1ccc(-c2cnc(Oc3ccccc3)c(C(=O)N/N=C/c3cc(OC)cc(OC)c3)n2)cc1 [Compound 146, (E)-N′-(3,5-dimethoxybenzylidene)-6-(4-ethoxyphenyl)-3-phenoxypyrazine-2-carbohydrazide] | > 300 | > 300
CCOc1ccc(-c2cnc(-c3ccccc3)c(C(=O)N/N=C/c3cc(OC)cc(OC)c3)n2)cc1 [Compound 147, (E)-N′-(3,5-dimethoxybenzylidene)-6-(4-ethoxyphenyl)-3-phenylpyrazine-2-carbohydrazide] | > 300 | > 300
CCCCOc1ccc(-c2cncc(C(=O)N/N=C/c3cc(OC)cc(OC)c3)n2)c(Cl)c1 [Compound 158, (E)-6-(4-butoxy-2-chlorophenyl)-N′-(3,5-dimethoxybenzylidene)pyrazine-2-carbohydrazide] | 282 | 245
COc1cc(/C=N/NC(=O)c2cncc(-c3ccc(OCC(C)C)cc3Cl)n2)cc(OC)c1 [Compound 159, (E)-6-(2-chloro-4-isobutoxyphenyl)-N′-(3,5-dimethoxybenzylidene)pyrazine-2-carbohydrazide] | 293 | 217
COc1cc(/C=N/NC(=O)c2cnc(Cl)cn2)cc(OC)c1 [Compound 164, (E)-5-chloro-N′-(3,5-dimethoxybenzylidene)pyrazine-2-carbohydrazide] | > 1000 | > 10000

The remaining lines, values ahead:

IC50 [1] [nM] | IC50 [2] [nM] | Structure (SMILES)
803 | 49.2 | COc1cc(/C=N/NC(=O)c2cncc(-c3ccc(OC)cc3C(F)(F)F)n2)cc(OC)c1 [Compound 123, (E)-N′-(3,5-dimethoxybenzylidene)-6-(4-methoxy-2-(trifluromethoxy)phenyl)pyrazine-2-carbohydrazide]
73.2 | 181 | COc1cc(/C=N/NC(=O)c2cncc(-c3ccc(OC)cc3OC)n2)cc(OC)c1 [Compound 124, (E)-N′-(3,5-dimethoxybenzylidene)-6-(2,4-dimethoxyphenyl)pyrazine-2-carbohydrazide]
> 1000 | > 10000 | COc1cc(/C=N/NC(=O)c2cncc(-c3ccccn3)n2)cc(OC)c1 [Compound 125, (E)-N′-(3,5-dimethoxybenzylidene)-6-(pyridin-2-yl)pyrazine-2-carbohydrazide]
> 1000 | > 10000 | COc1cc(/C=N/NC(=O)c2cncc(N3CCCCC3)n2)cc(OC)c1 [Compound 127, (E)-N′-(3,5-dimethoxybenzylidene)-6-(piperidin-1-yl)pyrazine-2-carbohydrazide]
> 1000 | > 10000 | COc1ccc(Oc2cnc(C(=O)N/N=C/c3cc(OC)cc(OC)c3)cn2)cc1 [Compound 130]
> 1000 | > 10000 | COc1cc(/C=N/NC(=O)c2cncc(C)n2)cc(OC)c1 [Compound 137, (E)-N′-(3,5-dimethoxybenzylidene)-6-methylpyrazine-2-carbohydrazide]
650 | 5150 | CCOc1ccc(-c2cnc(C)c(C(=O)N/N=C/c3cc(OC)cc(OC)c3)n2)cc1 [Compound 143, (E)-N′-(3,5-dimethoxybenzylidene)-6-(4-ethoxyphenyl)-3-methylpyrazine-2-carbohydrazide]
> 300 | > 300 | CCOc1ccc(-c2cnc(CC)c(C(=O)N/N=C/c3cc(OC)cc(OC)c3)n2)cc1 [Compound 144, (E)-N′-(3,5-dimethoxybenzylidene)-6-(4-ethoxyphenyl)-3-ethylpyrazine-2-carbohydrazide]
> 300 | > 300 | CCOc1ccc(-c2cnc(OC)c(C(=O)N/N=C/c3cc(OC)cc(OC)c3)n2)cc1 [Compound 145, (E)-N′-(3,5-dimethoxybenzylidene)-6-(4-ethoxyphenyl)-3-methoxypyrazine-2-carbohydrazide]
60.9 | 123 | COc1cc(/C=N/NC(=O)c2cncc(-c3ccc(OCSC)cc3)n2)cc(OC)c1 [Compound 149, (E)-N′-(3,5-dimethoxybenzylidene)-6-(4-((methylthio)methoxy)phenyl)pyrazine-2-carbohydrazide]
118 | 121 | Cc1cc(C)cc(/C=N/NC(=O)c2cncc(-c3ccc(OC4CCCC4)cc3)n2)c1 [Compound 150, (E)-6-(4-(cyclopentyloxy)phenyl)-N′-(3,5-dimethylbenzylidene)pyrazine-2-carbohydrazide]
> 1000 | > 10000 | COc1cc(/C=N/NC(=O)c2cncc(-c3ccc(OCCN(C)C)cc3)n2)cc(OC)c1 [Compound 151, (E)-N′-(3,5-dimethoxybenzylidene)-6-(4-(2-(dimethylamino)ethoxy)phenyl)pyrazine-2-carbohydrazide]
88.4 | 138 | COc1cc(/C=N/NC(=O)c2cncc(-c3ccc(OCC4CC4)cc3)n2)cc(OC)c1 [Compound 152, (E)-6-(4-(cyclopropylmethoxy)phenyl)-N′-(3,5-dimethoxybenzylidene)pyrazine-2-carbohydrazide]
121 | 228 | CCOc1ccc(-c2cncc(C(=O)N/N=C/c3cccc(OC)c3)n2)c(OCC)c1 [Compound 153, (E)-6-(2,4-diethoxyphenyl)-N′-(3-methoxybenzylidene)pyrazine-2-carbohydrazide]
> 1000 | 1390 | CCOc1ccc(-c2cncc(C(=O)N/N=C/c3cccc(OC)c3)n2)c(OC(C)C)c1 [Compound 154, (E)-6-(4-ethoxy-2-isopropoxyphenyl)-N′-(3-methoxybenzylidene)pyrazine-2-carbohydrazide]
> 1000 | 4790 | COc1cc(/C=N/NC(=O)c2cncc(-c3ccc(OC)cc3OC(C)C)n2)cc(OC)c1 [Compound 156, (E)-N′-(3,5-dimethoxybenzylidene)-6-(2-isopropxy-4-methoxyphenyl)pyrazine-2-carbohydrazide]
456 | 180 | COc1cc(/C=N/NC(=O)c2cncc(-c3ccc(OC4CCCC4)cc3Cl)n2)cc(OC)c1 [Compound 157, (E)-6-(2-chloro-4-(cyclopentyloxy)phenyl)-N′-(3,5-dimethoxybenzylidene)pyrazine-2-carbohydrazide]
> 1000 | > 10000 | COc1cc(/C=N/NC(=O)c2cncc(-c3ccc(OC)cc3OCCN(C)C)n2)cc(OC)c1 [Compound 160, (E)-N′-(3,5-dimethoxybenzylidene)-6-(2-(2-(dimethylamino)ethoxy)-4-methoxyphenol)pyrazine-2-carbohydrazide]
> 1000 | > 10000 | COc1cc(/C=N/NC(=O)c2cncc(-c3ccccc3OC3CCCC3)n2)cc(OC)c1 [Compound 161, (E)-6-(2-(cyclopentyloxy)phenyl)-N′-(3,5-dimethoxybenzylidene)pyrazine-2-carbohydrazide]
> 1000 | > 10000 | COc1cc(/C=N/NC(=O)c2cncc(Cl)n2)cc(OC)c1 [Compound 163, (E)-6-chloro-N′-(3,5-dimethoxybenzylidene)pyrazine-2-carbohydrazide]
